Values quoted from earlier work, collected in patent US20200039732A1, “DEVICES FOR DISPENSING A HYDROFLUOROOLEFIN VAPOCOOLANT COMPOSITION AS AN AEROSOL” (GEBAUER COMPANY, priority 2016, published 2020).
Where two headings read alike, the source gives them in different places.

Conditions: for Liquid Viscosity / Surface Tension: at 20° C.

Q: Which results are given for `CCCl` [Ethyl Chloride, chloroethane]?
A: Pvap (25° C.): 0.135 MPa; Pvap (80° C.): 0.745 MPa; Liquid Viscosity: 0.279 cP; Surface Tension: 19.5 dyne/cm

Q: For `FC(F)(F)/C=C/Cl` [HCFO-1233zd, trans-1-chloro-3,3,3-trifluoropropene], which Pvap (25° C.) is on record?
A: 0.108 MPa

Q: What about the Pvap (80° C.) of the same molecule?
A: 0.650 MPa

Q: And the “Liquid Viscosity” value?
A: 0.319 cP

Q: What about the “Surface Tension” value of the same molecule?
A: 14.039 dyne/cm

Q: With `FCC(F)(F)F` [HFC-134a, 1,1,1,2-tetrafluoroethane] as the molecule, how does the Pvap (25° C.) read?
A: 0.665 MPa

Q: What about the Pvap (80° C.) of the same molecule?
A: 2.63 MPa

Q: What about the “Liquid Viscosity” value of the same molecule?
A: 0.202 cP

Q: What about the “Surface Tension” value of the same molecule?
A: 8.69 dyne/cm

Q: Which Pvap (25° C.) does the source give for `FC(F)CC(F)(F)F` [HFC-245fa, 1,1,1,3,3-pentafluoropropane] here?
A: 0.124 MPa

Q: What about the Pvap (80° C.) of the same molecule?
A: 0.789 MPa

Q: And the “Liquid Viscosity” value?
A: 0.402 cP

Q: What about the “Surface Tension” value of the same molecule?
A: 13.6 dyne/cm

Q: With `F/C=C/C(F)(F)F` [HFO-1234ze, trans-1,3,3,3-tetrafluoroprop-1-ene] as the molecule, how does the Pvap (25° C.) read?
A: 0.484 MPa

Q: And the Pvap (80° C.)?
A: 2.01 MPa

Q: What about the “Liquid Viscosity” value of the same molecule?
A: 0.489 cP

Q: And the “Surface Tension” value?
A: 13.3 dyne/cm

Q: For `CC(C)C` [Iso-Butane, isobutane], which Pvap (25° C.) is on record?
A: 0.319 MPa

Q: What about the Pvap (80° C.) of the same molecule?
A: 1.5 MPa

Q: What about the “Liquid Viscosity” value of the same molecule?
A: 0.156 cP

Q: What about the “Surface Tension” value of the same molecule?
A: 10.3 dyne/cm
